According to patent US11214540B2, “Compositions for treating neurodegenerative diseases” (COGNITION THERAPEUTICS, INC., priority 2017, dated 2022):
Where two headings read alike, the source gives them in different places.

Key:
[1] = tested on: Abeta oligomer-induced membrane trafficking deficits in primary hippocampal neurons; assay: Membrane Trafficking/Exocytosis (MTT) assay, Abeta oligomer effect on neurons; format: cell-based, rat; conditions: membrane trafficking, read-out: EC50 Abeta;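 note: compound potency for inhibiting the Abeta oligomer effect on exocytosis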
Summary of the method: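 Rat E18 hippocampal neurons cultured 3 weeks received compound (100 uM to 0.001 nM), then vehicle or Abeta 1-42 oligomers (3 μM total Abeta), for 1-24 h at 37 °C. MTT was added for 1 h, and formazan vesicle exocytosis was quantified by automated imaging with DAPI toxicity check. Tukey-Kramer comparisons were made with N=4.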

log P = format: physicochemical; conditions: for logP: octanol/water
Summary of the method: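 Ratio of un-ionized compound concentrations between octanol and water, with aqueous pH set so the un-ionized form predominates. Value given as the log of the octanol/water ratio.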

potassium channel hERG = potassium channel hERG (Homo sapiens (Human), UniProt Q12809); assay: In vitro testing for hERG inhibition; format: biochemical; conditions: in vitro toxicity potassium channel hERG
Chain of potassium channel hERG (Q12809 whole entry): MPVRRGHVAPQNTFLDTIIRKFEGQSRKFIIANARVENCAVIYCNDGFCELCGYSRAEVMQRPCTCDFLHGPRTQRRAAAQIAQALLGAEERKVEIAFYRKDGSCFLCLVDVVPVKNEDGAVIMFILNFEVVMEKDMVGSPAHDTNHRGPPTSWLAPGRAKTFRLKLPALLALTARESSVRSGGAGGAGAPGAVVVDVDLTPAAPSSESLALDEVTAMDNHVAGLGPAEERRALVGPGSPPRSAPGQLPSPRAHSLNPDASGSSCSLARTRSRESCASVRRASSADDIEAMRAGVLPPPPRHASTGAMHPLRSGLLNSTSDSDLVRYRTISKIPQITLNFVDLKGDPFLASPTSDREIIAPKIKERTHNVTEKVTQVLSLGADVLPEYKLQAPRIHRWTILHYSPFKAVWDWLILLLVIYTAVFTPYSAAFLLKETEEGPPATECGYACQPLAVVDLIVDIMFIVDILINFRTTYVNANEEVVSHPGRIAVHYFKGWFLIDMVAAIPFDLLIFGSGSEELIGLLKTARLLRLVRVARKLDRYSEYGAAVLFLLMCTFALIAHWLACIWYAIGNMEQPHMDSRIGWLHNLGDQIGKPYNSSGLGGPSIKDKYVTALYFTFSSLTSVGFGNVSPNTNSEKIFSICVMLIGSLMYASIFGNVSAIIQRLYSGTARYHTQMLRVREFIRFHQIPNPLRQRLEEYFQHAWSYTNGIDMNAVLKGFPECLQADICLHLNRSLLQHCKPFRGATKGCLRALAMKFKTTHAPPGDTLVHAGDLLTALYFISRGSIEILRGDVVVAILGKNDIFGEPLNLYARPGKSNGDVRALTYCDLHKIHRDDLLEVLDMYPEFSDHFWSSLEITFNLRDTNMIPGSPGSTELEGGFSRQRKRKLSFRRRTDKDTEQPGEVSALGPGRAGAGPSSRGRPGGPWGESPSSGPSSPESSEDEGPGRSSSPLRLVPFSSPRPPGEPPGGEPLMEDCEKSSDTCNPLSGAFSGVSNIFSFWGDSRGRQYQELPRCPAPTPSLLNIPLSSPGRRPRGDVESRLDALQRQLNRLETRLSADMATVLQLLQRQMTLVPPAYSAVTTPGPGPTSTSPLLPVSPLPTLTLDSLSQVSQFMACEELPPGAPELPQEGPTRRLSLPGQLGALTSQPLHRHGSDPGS
Description: In vitro testing for hERG inhibition was performed in a standard assay (See: Haverkamp W, Breithardt G, Carnm A J, Janse M J, Rosen M R, Antzelevitch C, Escande D, Franz M, Malik M, Moss A and Shah R. (2000) Eur Heat J 21 (15); 1216-31).

[2] = target: Sigma-2 receptors on membranes from rat cerebral cortex (Rattus norvegicus (Rat), UniProt Q5U3Y7); assay: Competitive Radioligand Binding Assay 1, Sigma-2 binding ([3H]DTG displacement with (+)pentazocine mask); conditions: sigma-2 receptor affinity; read-out: S2 Ki
Chain of Sigma-2 receptors on membranes from rat cerebral cortex (Q5U3Y7 whole entry): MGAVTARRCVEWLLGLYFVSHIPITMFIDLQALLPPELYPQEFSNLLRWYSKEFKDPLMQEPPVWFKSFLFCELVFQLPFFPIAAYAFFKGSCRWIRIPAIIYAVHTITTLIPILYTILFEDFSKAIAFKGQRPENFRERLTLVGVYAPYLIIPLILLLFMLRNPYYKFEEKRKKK
Description: Using the same protocol, some compounds for which membrane trafficking data are given in Table 1 were tested for recognition of sigma-2 receptor. Certain compounds preferentially bind to the sigma-2 receptor.
(§1) For Sigma-1 binding, various concentrations of test compounds from 100 μM to 1 nM were used to displace 8 nM [3H](+)pentazocine from endogenous receptors on Jurkat cell membranes (Ganapathy M E et al. 1991, J Pharmacol. Exp. Ther. 289:251-260). 10 μM Haloperidol was used to define non-specific binding. […] (Bowen W D, et al. 1993, Mol. Neuropharmcol 3:117-126). 10 μM Haloperidol was used to define non-specific binding. Reactions were terminated by rapid filtration through Whatman GF/C filters using a Brandel 12R cell harvester followed by two washes with ice-cold buffer. Radioactivity on the dried filter discs was measured using a liquid scintillation analyzer (Tri-Carb 2900TR; PerkinElmer Life and Analytical Sciences). The displacement curves were plotted and the Ki values of the test compounds for the receptor subtypes were determined using GraphPad Prism (GraphPad Software Inc., San Diego, Calif.). The percentage specific binding was determined by dividing the difference between total bound (disintegrations per minute) and nonspecific bound (disintegrations per minute) by the total bound (disintegrations per minute).
Affinities for Sigma-1 and Sigma-2 receptors are typically obtained from published studies using cerebral tissue homogenates with [3H](+)pentazocine to measure displacement from Sigma-1 receptors and [3H] 1,3-Di-(2-tolyl)guanidine in the presence of 300 nM (+)pentazocine to measure displacement from Sigma-2 receptors.

[3] = target: Sigma-1 receptors on Jurkat cell membranes (Homo sapiens (Human), UniProt Q99720); assay: Competitive Radioligand Binding Assay 1, Sigma-1 binding ([3H](+)pentazocine displacement); conditions: sigma-1 receptor affinity; read-out: S1 Ki
Chain of Sigma-1 receptors on Jurkat cell membranes (Q99720 whole entry): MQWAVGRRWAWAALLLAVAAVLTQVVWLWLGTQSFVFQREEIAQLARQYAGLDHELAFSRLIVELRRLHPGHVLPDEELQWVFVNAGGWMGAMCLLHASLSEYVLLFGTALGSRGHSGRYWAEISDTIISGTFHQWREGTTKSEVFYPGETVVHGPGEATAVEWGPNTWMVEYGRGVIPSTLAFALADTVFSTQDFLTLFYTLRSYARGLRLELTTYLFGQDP
Description: Certain compounds were tested for interaction with several receptors by blocking the binding or action of their agonists or antagonists. Some compounds were tested to see whether they interact directly with known cellular receptor or signaling proteins. Compounds can be tested for the ability to displace binding of known agonists or antagonists of a given human receptor that was overexpressed in cell lines or isolated from tissue. Compounds can also be tested for the ability to block downstream signaling induced by agonists or antagonists of a given human receptor. Compounds can be tested for action at 100 known receptors, and it is desirable that specific activity will occur at only a small subset of CNS-relevant receptors.
as §1, with “minute). […]” for “minute).”

[4] = Mouse liver microsome (MLM) stability; format: in vitro ADME; conditions: microsomal stability in mouse liver microsomes (MLM)
Description: A first pharmacokinetic study was performed in microsomes of mice mouse liver microsomes, MLM).
Microsomal stability experiments and plasma stability experiments were performed to determine metabolic and hepatic stability of candidate compounds.

[5] = Rattus norvegicus, Hippocampal neuron

Compound	log P (log P)	Ki [2]	Ki [3]	MLM T1/2 [4]	logP (log P)	EC50 [1]	IC50 (potassium channel hERG)	EC50 [1, 5]
COC1CCN(C(C=C(C)C)CC(C)(C)c2ccc(C(F)(F)F)cc2)CC1 (centres unmarked) [Compound 39]	5.49	43 nM	25 nM			600 nM	8200 nM	
CC(C)=CC(CCc1ccc(C)cc1)N1CCC(C2CCOCC2)CC1 (centres unmarked) [Compound 64]	3.52	268 nM	535 nM				11000 nM	
CC(C)=CC(COc1ccccc1)N1CCC(O)CC1 (centres unmarked) [Compound 184]	2.57		220 nM				62000 nM	
COCCCC1CCN(CCC(C)(C)c2ccc(C(F)(F)F)cc2)CC1 [Compound 4]	5.35	0.8 nM	0.5 nM				2200 nM	
CC(CC(C)(C)c1ccc(C(F)(F)F)cc1)N1CCC(CCO)CC1 (centres unmarked) [Compound 2]	4.67	0.6 nM	0.9 nM			> 15000 nM	9200 nM	
CC(C)=C[C@@H](CC(C)(C)c1ccc(C(F)(F)F)cc1)N1CCC[C@@H]1CO [Compound 83]	5.31	1000 nM	1000 nM			3800 nM	14000 nM	
CC(C)=CC(CC(C)(C)c1ccc(F)cc1)N1CCC(CCOC2CCOC2)CC1 (centres unmarked) [Compound 179]	5.49		430 nM				4000 nM	
CC(CC(C)(C)c1ccc(Cl)cc1)N1CCC(C)(O)CC1 (centres unmarked) [Compound 22]	3.85	7 nM	1 nM				1700 nM	
CC(CC(C)(C)c1ccc(C(F)(F)F)cc1)N1CCC(O)CC1 (centres unmarked) [Compound 13]	3.85	2.9 nM	1 nM				2500 nM	
CC(CC(C)(C)c1ccc(Cl)cc1)N1CCC(CO)CC1 (centres unmarked) [Compound 16]	4.03	4.5 nM	0.8 nM				840 nM	
COC[C@H]1CCCN1C(C)CC(C)(C)c1ccc(Cl)cc1 (some centres unmarked) [Compound 84]	4.67	1000 nM	1000 nM			250 nM	3900 nM	
COC1CCN(CCC(C)(C)c2ccc(Cl)cc2)CC1 [Compound 10]	3.8	2.1 nM	0.7 nM			1260 nM	11000 nM	
CC1(O)CCN(CCC(C)(C)c2ccc(C(F)(F)F)cc2)CC1 [Example 14]		3 nM	1.9 nM		3.71		18000 nM	3700 nM
CC(C)=CC(CC(C)(C)c1ccc(C(F)(F)F)cc1)N1CCC(CCOC2CCOC2)CC1 (centres unmarked) [Compound 182]	6.22		160 nM				2600 nM	
CCOC1CCN(C(C=C(C)C)CC(C)(C)c2ccc(F)cc2)CC1 (centres unmarked) [Compound 59]	5.12	160 nM	600 nM			250 nM	73000 nM	
CC(CC(C)(C)c1ccc(Cl)cc1)N1CCC(O)CC1 (centres unmarked) [Compound 20]	3.57	6.1 nM	1 nM				1700 nM	
CC(C)=CC(CC(C)(C)c1ccc(C(F)(F)F)cc1)N1CCC2(CC1)OCc1ccccc12 (centres unmarked) [Compound 189]	6.89		37 nM				5700 nM	
CC(C)=CC(COc1ccc(Cl)cc1)N1CCC(O)CC1 (centres unmarked) [Compound 186]	3.18		42 nM				2300 nM	
CC(C)=CC(CC(C)(C)c1ccc(Cl)cc1)N1CCC(c2ccncc2)CC1 (centres unmarked) [Compound 24]	6.31	10 nM				20000 nM		
CC(C)=CC(CC(C)(C)c1ccc(C)cc1)NCc1ccc(C)cc1 (centres unmarked) [Compound 54]	7.02	120 nM				3200 nM		

The next lines start with results.

log P (log P)	Ki [2]	Ki [3]	MLM T1/2 [4]	logP (log P)	Compound	EC50 [1]	IC50 (potassium channel hERG)	EC50 [1, 5]
4.13	2.7 nM	1 nM			CCC(C)(O)CCNC(C)CC(C)(C)c1ccc(C(F)(F)F)cc1 (centres unmarked) [Compound 12]		970 nM	
3.16	1.6 nM	0.4 nM			CC(C)(CCN1CCC(O)CC1)c1ccc(Cl)cc1 [Compound 8]	250 nM	14000 nM	
3.87	2500 nM	160 nM			CC(=O)N1CCN(C(C=C(C)C)CC(C)(C)c2ccc(F)cc2)CC1 (centres unmarked) [Compound 81]		32000 nM	
2.72	5.6 nM	2.6 nM			CC(C)=CC(COc1ccc(F)cc1)N1CCC(O)CC1 (centres unmarked) [Compound 18]	250 nM	29000 nM	
3.57	6 nM	2.2 nM			CC(CC(C)(C)c1ccc(F)cc1)N1CCC(CO)CC1 (centres unmarked) [Compound 19]	< 250 nM	37000 nM	
3.11	10 nM	2.3 nM			CC(CC(C)(C)c1ccc(F)cc1)N1CCC(O)CC1 (centres unmarked) [Compound 25]		4000 nM	
4.61	340 nM	62 nM			CC(=O)N1CCN(C(C=C(C)C)CC(C)(C)c2ccc(C(F)(F)F)cc2)CC1 (centres unmarked) [Compound 71]		17000 nM	
5.63			1.8 min		CC(C)=CC(CCc1ccc(C)cc1)N1CCC(C2CCOCC2)CC1 (centres unmarked) [Compound 114]			
6.28	44 nM	170 nM			COCCOCCC1CCN(C(C=C(C)C)CC(C)(C)c2ccc(C(F)(F)F)cc2)CC1 (centres unmarked) [Compound 40]	830 nM	9600 nM	
6.27	79 nM	260 nM			CC(C)=CC(CC(C)(C)c1ccc(C(F)(F)F)cc1)N1CCC(OC(C)C)CC1 (centres unmarked) [Compound 44]	1400 nM	9200 nM	
5.16	0.2 nM	0.7 nM			CC(C)(CCN1CCC(C2CCOCC2)CC1)c1ccc(C(F)(F)F)cc1 [Compound 1]		740 nM	
	5.1 nM	1.3 nM		3.43	CC(C)(CCN1CCC(O)CC1)c1ccc(C(F)(F)F)cc1 [Example 17]		11000 nM	2240 nM
4.13	270 nM	1200 nM			CC(C)=CC(CCc1ccc(F)cc1)N1CCC(C2CCOCC2)CC1 (centres unmarked) [Compound 65]		2300 nM	
4.33	690 nM	690 nM			CC(=O)N1CCN(C(C=C(C)C)CC(C)(C)c2ccc(Cl)cc2)CC1 (centres unmarked) [Compound 75]	250 nM	15000 nM	
5.55	90 nM	1910 nM			CC(C)=CC(CC(C)(C)c1ccc(F)cc1)N1CCN(C(=O)OC(C)(C)C)CC1 (centres unmarked) [Compound 47]		14000 nM	
4.49	1 nM	0.3 nM			COC1CCN(C(C)CC(C)(C)c2ccc(C(F)(F)F)cc2)CC1 (centres unmarked) [Compound 6]	> 15000 nM	750 nM	
5.59			4.9 min		CC(C)=CC(CC(C)(C)c1ccc(C)cc1)N(C)CC1CCOCC1 (centres unmarked) [Compound 112]			
